Reference: paper PMC9131077, “Cytosolic Nudix Hydrolase 1 Is Involved in Geranyl β-Primeveroside Production in Tea” (Frontiers in Plant Science, 2022)

Assays:
Experiment in all cases: LC-MS/MS (MRM) of product GP
Format in all cases: biochemical
CsNUDX1-cyto = biological target: T1, CsNUDX1-cyto (Camellia sinensis, UniProt A0A4S4EYR7)
T1 construct: gene TEA_005538; full length, 156 residues; E. coli BL21 (DE3) Rosetta, pET15b, N-terminal His-tag, tested with and without tag

AtNUDX1 = biological target: T2, AtNUDX1 (Arabidopsis thaliana, UniProt Q9CA40); conditions: hydrolysed to GP; His-tagged positive control
T2 construct: gene NUDT1; E. coli BL21 (DE3) Rosetta, His-tag kept

CsNUDX1-chlo-Δ70 = biological target: T3, CsNUDX1-chlo-Δ70 (Camellia sinensis, UniProt A0A4S4EZL9); conditions: hydrolysed to GP; transit peptide removed
T3 construct: gene TEA_000488; N-terminal 70-residue transit peptide removed from the 220-residue protein; E. coli BL21 (DE3) Rosetta, pET15b, N-terminal His-tag
T3 sequence (A0A4S4EZL9 entry or part of it, stated change not applied): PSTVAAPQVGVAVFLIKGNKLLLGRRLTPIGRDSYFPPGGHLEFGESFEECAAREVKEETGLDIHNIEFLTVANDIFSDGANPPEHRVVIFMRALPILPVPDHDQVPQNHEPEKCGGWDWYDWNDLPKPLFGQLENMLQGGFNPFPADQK

T1 sequence (A0A4S4EYR7 1-156): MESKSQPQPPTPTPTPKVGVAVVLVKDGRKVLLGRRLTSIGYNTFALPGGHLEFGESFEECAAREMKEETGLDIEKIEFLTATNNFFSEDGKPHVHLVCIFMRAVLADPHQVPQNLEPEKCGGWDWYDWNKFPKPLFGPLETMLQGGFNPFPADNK
T2 sequence (Q9CA40 whole entry): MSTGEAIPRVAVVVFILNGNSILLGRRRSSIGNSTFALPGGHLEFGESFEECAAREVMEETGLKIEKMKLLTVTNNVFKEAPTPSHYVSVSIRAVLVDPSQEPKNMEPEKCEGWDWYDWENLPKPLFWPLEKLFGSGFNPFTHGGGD

| Structure (SMILES) | LC-MS/MS (MRM) of product GP (CsNUDX1-cyto; hydrolysed to GP, with and without His-tag) | LC-MS/MS (MRM) of product GP (AtNUDX1) | LC-MS/MS (MRM) of product GP (CsNUDX1-chlo-Δ70) | LC-MS/MS (MRM) of product GP (CsNUDX1-cyto; from GPP) |
| --- | --- | --- | --- | --- |
| CC(C)=CCC/C(C)=C/COP(=O)(O)OP(=O)(O)O [geranyl pyrophosphate] | CsNUDX1-cyto possessed a stronger GPP to GP hydrolysis activity than the Arabidopsis AtNUDX1 | stronger GPP to GP hydrolysis activity than the Arabidopsis AtNUDX1 | exhibited an increased activity compared to the full length CsNUDX1-chlo | – |
| CC(C)=CCC/C(C)=C/COP(=O)(O)O [geranyl monophosphate] | – | – | – | GP was verified in vitro as the direct chemical product of CsNUDX1-cyto |
